The values below come from ChEMBL document CHEMBL1201862, “PubChem BioAssay data set” (2004).

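Method: 48-hour compound exposure of cells in 96-well plates, five concentrations, linear interpolation of endpoints. GI50: concentration for 50% inhibition of growth.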 Activity calls are given as the source filed them. Rule as the data show it: active = GI50 up to about 1.1 µM and inactive = higher.

Among the test systems are SNB-19; HOP-92; ACHN; SK-OV-3; MCF7; SK-MEL-5; SF-539; NCI/ADR-RES; NCI-H460; Malme-3M; OVCAR-3; PC-3; DU-145; MDA-MB-231; HCT-116; HCT-15; HOP-62; SK-MEL-2; IGROV-1.
What all share (experiment): NCI-60 cell line screen, 48 h

As to `O=[N+]([O-])c1ccc(CSc2c3ccccc3nc3ccccc23)cc1`, the GI50 in the assay with SNB-19 is 15.8 µM (inactive); in the assay with HOP-92, 3.75 µM (inactive); with ACHN, 3.37 µM (inactive); in the assay with SK-OV-3, 22 µM (inactive); in the assay on MCF7, 2.51 µM (inactive); with SK-MEL-5 it was 16.7 µM (inactive). The GI50 is 2.47 µM (inactive) in the assay on SF-539; 18 µM (inactive) in the assay on NCI/ADR-RES; 20.6 µM (inactive) in the assay with NCI-H460; 2.34 µM (inactive) in the assay with Malme-3M; 4.53 µM (inactive) in the assay on OVCAR-3; 7.43 µM (inactive) in the assay on PC-3. The GI50 in the assay on DU-145 is 2.3 µM (inactive); in the assay on MDA-MB-231 it was 13.5 µM (inactive); with HCT-116, 2.78 µM (inactive); in the assay with HCT-15, 3.91 µM; in the assay with HOP-62 it was 18.3 µM (inactive); with SK-MEL-2 it was 16.9 µM (inactive). In addition, the GI50 in the assay with IGROV-1 was 2.82 µM (inactive).

`CCN1C(NN)=NS(=O)(=O)c2ccccc21`: the GI50 with SNB-19, with HOP-92, in the assay with ACHN, in the assay on SK-OV-3, in the assay with MCF7 and in the assay with SK-MEL-5 was > 100 µM (inactive) throughout. Besides, the GI50 in the assay with SF-539, in the assay with NCI/ADR-RES, in the assay with NCI-H460, with OVCAR-3, in the assay on PC-3 and in the assay with DU-145 was > 100 µM (inactive) throughout. In addition, the GI50 in the assay with MDA-MB-231 is > 100 µM (inactive); in the assay with HCT-116 it was > 100 µM (inactive); with HCT-15, greater than 100 µM; with HOP-62 it was > 100 µM (inactive); with SK-MEL-2 it was > 100 µM (inactive); with IGROV-1, > 100 µM (inactive).

Turning to `O=C(c1ccco1)N(Cc1cccnc1)C(=S)N(Cc1cccnc1)C(=O)c1ccco1`, the GI50 in the assay on SNB-19 is 30.8 µM (inactive); in the assay with HOP-92, 17.7 µM (inactive); with ACHN, 17 µM (inactive); in the assay with SK-OV-3, 33.6 µM (inactive); with MCF7, 3.86 µM (inactive); with SK-MEL-5 it was 14.6 µM (inactive). Besides, the GI50 in the assay on SF-539 is 11.1 µM (inactive); with NCI/ADR-RES, 34.2 µM (inactive); in the assay with NCI-H460, 22.6 µM (inactive); in the assay on Malme-3M, 16.7 µM (inactive); in the assay on OVCAR-3 it was 6.35 µM (inactive); in the assay on PC-3, 6.19 µM (inactive). Besides, the GI50 in the assay on DU-145 was 19.5 µM (inactive); with MDA-MB-231 it was 8.75 µM (inactive); in the assay with HCT-116, 7.67 µM (inactive); in the assay with HCT-15, 13 µM; in the assay with HOP-62, 13.1 µM (inactive); in the assay with SK-MEL-2, 12.5 µM (inactive).

As for `N#CCCN(CCCN(C(=O)N(c1ccccc1)c1ccccc1)c1ccccc1)C(=O)Nc1ccccc1`, the GI50 was > 100 µM (inactive) in the assay on SNB-19; > 100 µM (inactive) in the assay on HOP-92; 93.3 µM (inactive) with ACHN; > 100 µM (inactive) with SK-OV-3; 18.2 µM (inactive) in the assay on MCF7; 24.9 µM (inactive) in the assay with SK-MEL-5. Also, the GI50 in the assay on SF-539 was > 100 µM (inactive); in the assay on NCI/ADR-RES, 30.1 µM (inactive); in the assay with NCI-H460, 40 µM (inactive); in the assay with Malme-3M, > 100 µM (inactive); in the assay with OVCAR-3, > 100 µM (inactive); in the assay with PC-3 it was 18.7 µM (inactive). Moreover, the GI50 is > 100 µM (inactive) with DU-145; > 100 µM (inactive) in the assay with MDA-MB-231; 29.6 µM (inactive) with HCT-116; greater than 100 µM with HCT-15; > 100 µM (inactive) in the assay on HOP-62; > 100 µM (inactive) with SK-MEL-2.

As to `COC(=O)/C=C1\C(=O)C=C2[C@@H]3C[C@H]4C[C@H](CC[C@@]4(C)N21)C3(C)NC(C)=O` (stereo partly drawn), the GI50 with SNB-19 was 25.9 µM (inactive); in the assay on HOP-92, 18 µM (inactive); in the assay on ACHN, 16 µM (inactive); in the assay on SK-OV-3, 24.2 µM (inactive); in the assay with MCF7 it was 7.18 µM (inactive); in the assay with SK-MEL-5 it was 11.1 µM (inactive). The GI50 in the assay with SF-539 was 3.33 µM (inactive); in the assay with NCI/ADR-RES, 26.5 µM (inactive); in the assay on NCI-H460, 29.8 µM (inactive); in the assay on OVCAR-3 it was 11.8 µM (inactive); in the assay with PC-3 it was 15.1 µM (inactive); in the assay on DU-145 it was 10.7 µM (inactive). Also, the GI50 in the assay on MDA-MB-231 is 26 µM (inactive); with HCT-116, 8.97 µM (inactive); in the assay with HCT-15, 11.5 µM; in the assay on HOP-62 it was 20.7 µM (inactive); in the assay on SK-MEL-2 it was 18.4 µM (inactive); in the assay on IGROV-1, 20 µM (inactive).

Consider `CC1=C(C(=O)OC2CC3CCC2(C)C3(C)C)C2Nc3ccccc3N(C)C2O1` (stereo not drawn), for which the GI50 was 3.48 µM (inactive) in the assay with SNB-19; 3.22 µM (inactive) with HOP-92; 2.74 µM (inactive) with ACHN; 4.43 µM (inactive) with SK-OV-3; 2.36 µM (inactive) with MCF7; 1.69 µM (inactive) in the assay with SK-MEL-5. The GI50 in the assay with SF-539 was 3.04 µM (inactive); in the assay with NCI/ADR-RES, 2.99 µM (inactive); in the assay on NCI-H460, 1.6 µM (inactive); in the assay with OVCAR-3, 2.24 µM (inactive); in the assay with PC-3, 2.52 µM (inactive); with DU-145 it was 1.47 µM (inactive). Besides, the GI50 is 3.01 µM (inactive) in the assay with MDA-MB-231; 2.79 µM (inactive) in the assay on HCT-116; 2.01 µM in the assay on HCT-15; 3.84 µM (inactive) in the assay with HOP-62; 2.35 µM (inactive) in the assay on SK-MEL-2; 1.77 µM (inactive) in the assay with IGROV-1.

Turning to `CCOC(=O)NC(Nc1ccc(S(=O)(=O)Nc2ccc(OC)nn2)cc1)(C(F)(F)F)C(F)(F)F`, the GI50 with SNB-19 was 43.2 µM (inactive); in the assay on HOP-92 it was 28.5 µM (inactive); in the assay with ACHN, 27 µM (inactive); in the assay on SK-OV-3 it was 52 µM (inactive); with MCF7, 36.4 µM (inactive); with SK-MEL-5 it was 17.8 µM (inactive). Besides, the GI50 in the assay with SF-539 is 20.6 µM (inactive); in the assay with NCI/ADR-RES it was 23.9 µM (inactive); with NCI-H460, 41.6 µM (inactive); in the assay with Malme-3M, 20.2 µM (inactive); with OVCAR-3, 20.7 µM (inactive); in the assay on PC-3, 21.3 µM (inactive). Besides, the GI50 is 43.5 µM (inactive) in the assay on DU-145; 18.8 µM (inactive) in the assay on MDA-MB-231; 22.6 µM (inactive) with HCT-116; 49.1 µM in the assay on HCT-15; 25.8 µM (inactive) in the assay on HOP-62; 22.8 µM (inactive) in the assay with IGROV-1.

As to `COc1ccc(/C=C2\CCS(=O)(=O)c3ccccc3C2=O)cc1`, the GI50 with SNB-19 was 24.5 µM (inactive); in the assay on HOP-92, 36 µM (inactive); in the assay with ACHN, 24.4 µM (inactive); with SK-OV-3 it was 38.3 µM (inactive); in the assay on MCF7, 35.4 µM (inactive); in the assay with SF-539, 21.1 µM (inactive). Also, the GI50 was 20.1 µM (inactive) in the assay on NCI/ADR-RES; 21.7 µM (inactive) with NCI-H460; 30 µM (inactive) in the assay with OVCAR-3; 27.5 µM (inactive) in the assay on PC-3; 23.2 µM (inactive) in the assay on DU-145; 24.6 µM (inactive) in the assay on MDA-MB-231. In addition, the GI50 in the assay with HCT-116 is 17.1 µM (inactive); in the assay with HCT-15, 19.6 µM; in the assay on HOP-62, 36.3 µM (inactive); in the assay with SK-MEL-2, 31.4 µM (inactive); with IGROV-1, 18.2 µM (inactive).

Consider `CCOC(=O)Oc1cc2c(ccn2C)c2c1c1ccccc1n2C(=O)OCC`, for which the GI50 with HOP-92, with ACHN, in the assay on SK-OV-3, in the assay with MCF7, with SK-MEL-5 and in the assay on SF-539 was > 100 µM (inactive) throughout. Further, the GI50 is > 100 µM (inactive) with NCI/ADR-RES; > 100 µM (inactive) with NCI-H460; 76.7 µM (inactive) with Malme-3M; > 100 µM (inactive) in the assay with OVCAR-3; > 100 µM (inactive) in the assay on PC-3; > 100 µM (inactive) with DU-145. Further, the GI50 in the assay on MDA-MB-231 was > 100 µM (inactive); in the assay with HCT-116, > 100 µM (inactive); with HCT-15, greater than 100 µM; in the assay with HOP-62, > 100 µM (inactive); in the assay on SK-MEL-2, > 100 µM (inactive); in the assay with IGROV-1, > 100 µM (inactive).

With `O=C(N/N=C\c1ccccc1)Nc1cccc2ccccc12`, the GI50 with SNB-19 is 60.7 µM (inactive); in the assay with HOP-92, 40.5 µM (inactive); with ACHN, 18.1 µM (inactive); in the assay with MCF7, > 10 µM (inactive); with SK-MEL-5 it was 12.1 µM (inactive); with SF-539, 50.4 µM (inactive). The GI50 in the assay with NCI/ADR-RES is 87.7 µM (inactive); in the assay on NCI-H460, 27.7 µM (inactive); in the assay on Malme-3M, 28.5 µM (inactive); in the assay with OVCAR-3 it was > 100 µM (inactive); in the assay with PC-3, 24.4 µM (inactive); with DU-145, > 100 µM (inactive). In addition, the GI50 with MDA-MB-231 is 91.4 µM (inactive); in the assay with HCT-116, 35.9 µM (inactive); in the assay on HCT-15 it was 74 µM; in the assay with HOP-62, 18.5 µM (inactive); with SK-MEL-2 it was 26.7 µM (inactive); in the assay on IGROV-1, 24.7 µM (inactive).

Consider `COc1ccc(OC)c(NC2=NCCO2)c1`, for which the GI50 in the assay on SNB-19 is 10.6 µM (inactive); in the assay with HOP-92, < 0.01 µM (active); with ACHN, > 100 µM (inactive); in the assay with MCF7, > 100 µM (inactive); in the assay on SK-MEL-5, > 100 µM (inactive); in the assay with SF-539, > 100 µM (inactive). Besides, the GI50 with NCI/ADR-RES, in the assay on NCI-H460, with Malme-3M, with OVCAR-3, in the assay on PC-3 and with DU-145 was > 100 µM (inactive) each time. Moreover, the GI50 is > 100 µM (inactive) in the assay on MDA-MB-231; > 100 µM (inactive) in the assay with HCT-116; greater than 100 µM with HCT-15; > 100 µM (inactive) in the assay with HOP-62; 18 µM (inactive) in the assay on SK-MEL-2; > 100 µM (inactive) in the assay with IGROV-1.
